Laboratory results reported in the supplement of paper PMC8671470.

How the values were obtained:
Conditions in all cases: 72 h
KCL-22 [1] = experiment: cell viability (% survival relative to DMSO control, bortezomib = 0%); higher = less cytotoxic
How it was run: (§1)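 Fifteen myeloid leukaemia cell lines were exposed to compounds at 1, 10, 100, 1000 or 10000 nM in 384-well plates for 72 h at 37 °C and 5% CO2. Viability was read by CellTiter-Glo luminescence and normalised, with vehicle as 100% and a 10 µM positive control as 0%. Values are percent survival averaged over duplicates.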

KG-1 [2] = experiment: as above
How it was run: as §1

HEL [3] = experiment: as above
How it was run: as §1

Mono-Mac-6 [4] = experiment: as above
How it was run: as §1

THP-1 [5] = experiment: as above
How it was run: as §1

LAMA-84 [6] = experiment: as above
How it was run: as §1

BV-173 [7] = experiment: as above
How it was run: as §1

K-562 [8] = experiment: as above
How it was run: as §1

MV4-11 [9] = experiment: as above
How it was run: as §1

HL-60 [10] = experiment: as above
How it was run: as §1

NOMO-1 [11] = experiment: as above
How it was run: as §1

ML-2 [12] = experiment: as above
How it was run: as §1

KU-812 [13] = experiment: as above
How it was run: as §1

SHI-1 [14] = experiment: as above
How it was run: as §1

MOLM-13 [15] = experiment: as above
How it was run: as §1

KCL-22 [16] = test system: KCL-22
How it was run: (§2)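 Fifteen myeloid leukaemia cell lines were seeded in RPMI 1640 at a density titrated to the linear growth range. Each line went into 384-well plates with compounds acoustically pre-printed at five tenfold doses from 1 to 10,000 nM, in duplicate, and was incubated for 72 h at 37 °C with 5% CO2. Luminescent ATP viability was normalised to vehicle and to a positive control at 10 µM. The IC50 came from four-parameter log-logistic dose–response fits.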

KG-1 [17] = test system: KG-1
How it was run: as §2

HEL [18] = test system: HEL
How it was run: as §2

Mono-Mac-6 [19] = test system: Mono-Mac-6
How it was run: as §2

THP-1 [20] = test system: THP-1
How it was run: as §2

LAMA-84 [21] = test system: LAMA-84
How it was run: as §2

BV-173 [22] = test system: BV-173
How it was run: as §2

K-562 [23] = test system: K-562
How it was run: as §2

MV4-11 [24] = test system: MV4-11
How it was run: as §2

HL-60 [25] = test system: HL-60
How it was run: as §2

NOMO-1 [26] = test system: NOMO-1
How it was run: as §2

ML-2 [27] = test system: ML-2
How it was run: as §2

KU-812 [28] = test system: KU-812
How it was run: as §2

SHI-1 [29] = test system: SHI-1
How it was run: as §2

MOLM-13 [30] = test system: MOLM-13
How it was run: as §2

[31] = test system: myeloid leukemia patient primary cells Pat.12; experiment: area under dose-response curve (viability, 1 nM-10 uM) (fraction (0-1)); higher = more sensitive
Protocol: (§3)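 AUC (0–1, higher = more sensitive) of the 5-point dose–response (1 nM–10 µM, 72 h, CellTiter-Glo) in primary AML/CML patient mononuclear cells. 0.030103 is the floor for inactive compounds.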

[32] = test system: myeloid leukemia patient primary cells Pat.9; experiment: as above
Protocol: as §3

[33] = test system: myeloid leukemia patient primary cells Pat.11; experiment: as above
Protocol: as §3

[34] = test system: myeloid leukemia patient primary cells Pat.1; experiment: as above
Protocol: as §3

[35] = test system: myeloid leukemia patient primary cells Pat.15; experiment: as above
Protocol: as §3

[36] = test system: myeloid leukemia patient primary cells Pat.8; experiment: as above
Protocol: as §3

[37] = test system: myeloid leukemia patient primary cells Pat.2; experiment: as above
Protocol: as §3

[38] = test system: myeloid leukemia patient primary cells Pat.7; experiment: as above
Protocol: as §3

[39] = test system: myeloid leukemia patient primary cells Pat.3; experiment: as above
Protocol: as §3

[40] = test system: myeloid leukemia patient primary cells Pat.6; experiment: as above
Protocol: as §3

[41] = test system: myeloid leukemia patient primary cells Pat.5; experiment: as above
Protocol: as §3

[42] = test system: myeloid leukemia patient primary cells Pat.14; experiment: as above
Protocol: as §3

[43] = test system: myeloid leukemia patient primary cells Pat.13; experiment: as above
Protocol: as §3

[44] = test system: myeloid leukemia patient primary cells Pat.12; experiment: cell viability (% survival relative to DMSO control); higher = less cytotoxic
How it was run: (§4)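 Thawed, Ficoll-purified mononuclear cells from AML or CML patients in RPMI 1640 with 10% FBS were seeded at 10,000 cells/well on 384-well plates pre-printed with 70 compounds at five tenfold concentrations, 1–10,000 nM, in duplicate, for 72 h. Viability was read by CellTiter-Glo and normalised to DMSO and 10 μM proteasome-inhibitor wells. Where given, area under the curve came from four-parameter log-logistic fits (drc, PharmacoGx R packages).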

[45] = test system: myeloid leukemia patient primary cells Pat.9; experiment: as above
How it was run: as §4

[46] = test system: myeloid leukemia patient primary cells Pat.10; experiment: as above
How it was run: as §4

[47] = test system: myeloid leukemia patient primary cells Pat.11; experiment: as above
How it was run: as §4

[48] = test system: myeloid leukemia patient primary cells Pat.1; experiment: as above
How it was run: as §4

[49] = test system: myeloid leukemia patient primary cells Pat.15; experiment: as above
How it was run: as §4

[50] = test system: myeloid leukemia patient primary cells Pat.8; experiment: as above
How it was run: as §4

[51] = test system: myeloid leukemia patient primary cells Pat.4; experiment: as above
How it was run: as §4

[52] = test system: myeloid leukemia patient primary cells Pat.2; experiment: as above
How it was run: as §4

[53] = test system: myeloid leukemia patient primary cells Pat.7; experiment: as above
How it was run: as §4

[54] = test system: myeloid leukemia patient primary cells Pat.3; experiment: as above
How it was run: as §4

[55] = test system: myeloid leukemia patient primary cells Pat.6; experiment: as above
How it was run: as §4

[56] = test system: myeloid leukemia patient primary cells Pat.5; experiment: as above
How it was run: as §4

[57] = test system: myeloid leukemia patient primary cells Pat.14; experiment: as above
How it was run: as §4

[58] = test system: myeloid leukemia patient primary cells Pat.13; experiment: as above
How it was run: as §4

[59] = test system: myeloid leukemia patient primary cells Pat.10; experiment: area under dose-response curve (viability, 1 nM-10 uM) (fraction (0-1)); higher = more sensitive
Protocol: as §3

[60] = test system: myeloid leukemia patient primary cells Pat.4; experiment: as above
Protocol: as §3

COc1cc(/C=C/c2ccc(OC)cc2OC)cc(OC)c1 [2,3',4,5'-Tetramethoxystilbene]
cell viability [%]
Conditions	1 nM	10 nM	100 nM	1000 nM	10000 nM
BV-173 [7]	104	104	99.1	103	79.6
HEL [3]	106	106	99.2	103	106
HL-60 [10]	109	86.2	96.2	105	81.2
K-562 [8]	108	113	106	101	89.5
KCL-22 [1]	94.7	110	98.7	106	104
KG-1 [2]	94.9	110	91.9	101	79.7
KU-812 [13]	101	95.5	96.9	97.4	76.8
LAMA-84 [6]	103	104	99.4	96.4	94.3
ML-2 [12]	80.1	102	102	115	72.9
MOLM-13 [15]	105	105	86.4	107	100
MV4-11 [9]	103	106	98.4	98.4	86
Mono-Mac-6 [4]	94.6	97.2	95.3	100	104
NOMO-1 [11]	97.5	106	95.7	108	94.9
SHI-1 [14]	99.7	123	99.4	104	98.9
THP-1 [5]	97.3	107	108	109	75.3

Conditions	IC50 (cell viability) [µM]
BV-173 [22]	> 10
HEL [18]	> 10
HL-60 [25]	> 10
K-562 [23]	> 10
KCL-22 [16]	> 10
KG-1 [17]	> 10
KU-812 [28]	> 10
LAMA-84 [21]	> 10
ML-2 [27]	> 10
MOLM-13 [30]	> 10
MV4-11 [24]	> 10
Mono-Mac-6 [19]	> 10
NOMO-1 [26]	> 10
SHI-1 [29]	> 10
THP-1 [20]	> 10

CCn1c(=O)/c(=C2\Sc3ccccc3N2C)s/c1=C\c1cccc[n+]1CC.[Cl-] [MKT-077]
Conditions	area under dose-response curve
[31]	< 0.0301
[32]	0.0402
[33]	< 0.0301
[34]	< 0.0301
[35]	< 0.0301
[36]	0.0466
[37]	< 0.0301
[38]	0.0538
[39]	< 0.0301
[40]	0.0306
[41]	0.119
[42]	< 0.0301
[43]	0.0334

cell viability [%]
Conditions	1 nM	10 nM	100 nM	1000 nM	10000 nM
[44]	95.4	95.7	97	97.5	91.4
[45]	7.21	82.2	86.3	78.1	48
[46]	35.1	83.7	> 100	54.6	67.1
[47]	96.9	95.6	99.3	> 100	88.3
[48]	88.7	75.1	99.5	96.7	79.3
[49]	86.1	93.1	87.2	98.8	82.1
[50]	71.5	87.3	95.1	82.5	67.2
[51]	92.1	92.2	99.6	83.8	61.6
[52]	93.4	99.4	98.1	99.9	85.4
[53]	60.4	97.6	87.8	78.2	63.4
[54]	46.3	84.2	> 100	> 100	80.4
[55]	86.5	> 100	> 100	97.5	76.2
[56]	2.39	85	95.2	69.1	27.4
[57]	49.3	84.2	> 100	100	61.8
[58]	85.3	83.5	92.6	88.8	72.1

CC(C)c1onc(-c2c(Cl)cccc2Cl)c1COc1ccc(/C=C/c2cccc(C(=O)O)c2)c(Cl)c1 [GW 4064]
Conditions	area under dose-response curve
[31]	< 0.0301
[32]	0.539
[33]	< 0.0301
[34]	< 0.0301
[35]	< 0.0301
[36]	< 0.0301
[37]	< 0.0301
[38]	0.278
[39]	0.323
[40]	0.0544
[41]	0.413
[42]	0.18
[43]	0.0666
[59]	0.473
[60]	< 0.0301

cell viability [%]
Conditions	1 nM	10 nM	100 nM	1000 nM	10000 nM
[44]	92.5	94.8	97.5	95.5	89.8
[45]	59.1	40.4	48.8	3.95	< 0
[46]	61.6	86.6	38.4	8.43	9.05
[47]	96.4	95.9	99.3	90.6	74.3
[48]	> 100	91.2	95.4	99.2	68.8
[49]	92.6	95.2	95.5	98	89.7
[50]	91.6	88.4	64	90.2	81.9
[51]	81.1	92	96.4	91.2	64
[52]	98.1	94.5	84.4	96.8	92.7
[53]	64.4	67.8	67.5	40.3	< 0
[54]	83.5	78.7	86.3	16.1	0.177
[55]	> 100	94.1	99.2	92.7	62.8
[56]	80.1	49.1	67.6	2.27	0.265
[57]	84.9	69.6	66	63.2	2.05
[58]	99.3	88.8	78.5	81.7	52.7
